In a melting point compilation (Tetko et al.):

Row | Structure (SMILES) | melting point [°C]
1 | Cc1ccc(CN(C)C(N)=O)cc1 | 146 to 148
2 | NNC(=S)NCC(F)(F)F | 158 to 160
3 | O=S(=O)(Cl)c1cnc(Cl)c(Cl)c1 | 46 to 48
4 | O=C1CC(=O)Nc2ccccc2N1 | 383 to 385
5 | Clc1ccc(-n2cccn2)nn1 | 142 to 144
6 | O=c1c(-c2ccccc2)coc2cc(O)ccc12 | 201 to 203
7 | O=C(Cc1ncc[nH]1)c1ccc(Cl)cc1F | 140 to 142
8 | Cc1cnc2c(c1)NCCN2 | 127 to 129
9 | O=C(CNCc1cccnc1)Nc1ccc(Cl)cc1 | 81 to 83
10 | CS(=O)(=O)Nc1ccc(Cl)c(N)c1 | 156 to 158
11 | O=C1CCOc2ccccc2N1 | 109 to 111
12 | O=C(CCCc1ccccc1)Cc1ccc(Cl)cc1 | 31 to 33
13 | c1ccc(COc2cccc3cn[nH]c23)cc1 | 126 to 128
14 | Brc1ccccc1Cc1nn[nH]n1 | 135 to 137
15 | CCC(C)C(C)S(N)(=O)=O (stereo not given) | 44 to 46
16 | CN(C)C(=O)c1cc(N)ccc1F | 104 to 106
17 | CN(C)C(=O)c1ccc(Cl)cc1N | 65 to 67
18 | Nc1nn(C(=O)c2ccccc2Br)c2ccccc12 | 224 to 226
19 | CCc1cccc(CC)c1-n1ccnc1S | 196 to 198
20 | Cc1ccc(N)c(OCc2ccccc2)c1 | 68 to 70
21 | Cc1nn2c(=S)nc3ccccc3c2[nH]1 | 291 to 293
22 | COc1ccc(-n2nc(N)cc2C)cc1 | 87 to 89

Row | Structure (SMILES) | melting point [°C]
23 | OCCNc1ncnc2ccccc12 | 172 to 174
24 | CCOc1cc(C(=O)N(C)C)ccc1N | 107 to 109
25 | COc1cc(S(N)(=O)=O)ccc1[N+](=O)[O-] | 149 to 151
26 | NC(=O)c1ccsc1N | 160 to 162
27 | C=CCNc1nc(C(=O)OCC)cs1 | 84 to 86
28 | Cn1cc2c(=O)[nH][nH]c(=O)c2c1-c1ccc(N)cc1 | 349 to 351
29 | O/N=C(/Cc1nc2ccccc2n1C(F)F)c1ccccc1 | 165 to 167
30 | Cc1cccc(-c2nnc(N)[nH]2)n1 | 206 to 208
31 | CSc1cccc(N)c1C | 44 to 46
32 | Cn1cc(C=O)c(=O)n(C)c1=O | 121 to 123
33 | COc1nc2sccn2c1C=O | 130 to 132
34 | c1ccc(NCc2ccc3c(c2)OCO3)cc1 | 78 to 80
35 | FC(F)(F)c1ccc2sc(Cl)nc2c1 | 57 to 59
36 | CC(=O)c1ccc2ccccc2n1 | 47 to 49
37 | Cn1cc(C=O)c(-c2ccc([N+](=O)[O-])cc2)n1 | 175 to 177
38 | Cc1cc(C(=O)O)nn1C(C)(C)C | 143 to 145
39 | Cc1cc(N)n(Cc2ccccn2)n1 | 94 to 96
40 | CCS(=O)(=O)NCCc1ccc(S(N)(=O)=O)s1 | 121 to 123
41 | Cc1csc(NCCc2ccccc2)n1 | 80 to 82
42 | Cc1ncc(Br)c(N)n1 | 109 to 111
43 | Fc1ccccc1CNc1ccncc1 | 83 to 85
44 | Cc1ccc(Cl)c2c1C(=O)C(=O)N2 | 209 to 211

Row | Structure (SMILES) | melting point [°C]
45 | CNc1ccc(C#N)cc1F | 76 to 78
46 | O=C(Nc1ccc(F)cc1)c1ccc2c(c1)OCO2 | 186 to 188
47 | N#CCN1CCN(Cc2ccccc2)CC1 | 49 to 51
48 | Cc1ccc(C(=O)CC#N)c(C)c1 | 78 to 80
49 | CNCc1cccc(O)c1 | 144 to 146
50 | NC(=O)CCc1nnc(S)n1Cc1ccco1 | 204 to 206
51 | CC(C)Nc1cc(F)ccc1[N+](=O)[O-] | 68 to 70
52 | COCCc1ccc(S(=O)(=O)Cl)cc1 | 40 to 42
53 | Cc1occc1-c1nnc(S)n1Cc1ccccc1 | 134 to 136
54 | Nc1ccccc1C(=O)Nc1ccc(Cl)cc1 | 44 to 45
55 | CCc1cccc(NC(N)=S)c1 | 85 to 87
56 | Cn1cnc2cc(C#N)ccc21 | 139 to 141
57 | Cc1c(Br)cccc1S(=O)(=O)Cl | 64 to 66
58 | Clc1ccccc1-c1ncn[nH]1 | 154 to 156
59 | O=c1[nH]c2cnccc2n1Cc1ccccc1 | 213 to 215
60 | O=C(O)c1cn(-c2ccccc2)nc1-c1ccc(-c2ccccc2)cc1 | 255 to 257
61 | Cc1n[nH]c(O)c1C#N | 229 to 231
62 | Cc1cc(O)n(C(C)(C)C)n1 | 125 to 127
63 | NC(=O)c1cc(F)ccc1Br | 152 to 154
64 | NS(=O)(=O)c1ccccc1S(=O)(=O)Cl | 179 to 181
65 | CC1(c2cccc3ccccc23)NC(=O)NC1=O (stereo not given) | 105 to 107
66 | O=S(=O)(NCCBr)c1ccccc1 | 54 to 56

Results, then the compound that gave them:

Row | melting point [°C] | Structure (SMILES)
67 | 59 to 61 | O=C(O)C(Oc1ccc(Cl)c(Cl)c1)c1ccccc1 (stereo not given)
68 | 64 to 66 | O=Cc1cccc(OC(F)(F)C(=O)O)c1
69 | 124 to 126 | CCNC(=O)Cn1ccc(N)n1
70 | 211 to 213 | Cc1cccc(N2CC(C(=O)O)CC2=O)c1C (stereo not given)
71 | 129 to 131 | O=C(O)c1cccc(S(=O)(=O)N2CCN(c3ccc(F)cc3)CC2)c1
72 | 116 to 118 | CN(C)Cc1ccc(C(=O)NN)o1
73 | 196 to 198 | O=Cc1ccc(OCC(=O)O)c(Br)c1
74 | 60 to 62 | Brc1ccc(SC2CCOCC2)nc1
75 | 267 to 269 | O=C(O)c1ccc(-n2cccn2)nc1
76 | 225 to 227 | CCOC(=O)c1c[nH]cc(C)c1=O
77 | 143 to 145 | O=C(c1ccc(F)cc1)N1CCCCC(Cl)C1=O (stereo not given)
78 | 119 to 121 | O=C(O)C1CCCCC1C(=O)N1CCCC1 (stereo not given)
79 | 50 to 52 | COC(=O)Cc1ccc([N+](=O)[O-])s1
80 | 329 to 331 | CCOC(=O)c1cnc2cc(Br)ccc2c1O
81 | 138 to 140 | CC1(C)CCc2sc(C(=O)O)cc2C1
82 | 106 to 108 | CN(CC(=O)O)c1ccc(C(F)(F)F)cc1C=O
83 | 180 to 182 | O=C(O)c1ccc(F)c(S(=O)(=O)N2CCC2)c1
84 | 50 to 52 | Clc1ncnc2c1CCCCC2
85 | 104 to 106 | CC(C)(C)OC(=O)NCCC(=O)NN
86 | 182 to 184 | O=C(O)Cc1csc(NC(=O)OCC(F)(F)F)n1
87 | 171 to 173 | O=C1C(Br)=CC2C1C1C=CC2(Br)C12OCCO2 (stereo not given)
88 | 119 to 121 | COCc1c(C(=O)O)oc2ccccc12
89 | 169 to 171 | Cc1cc(NS(=O)(=O)C(F)(F)F)ccc1C(=O)O
90 | 168 to 170 | NNC(=O)c1csc(N2CCOCC2)n1
91 | 62 to 64 | CCOC(=O)c1cnc2ccc(C)cc2c1Cl
92 | 140 to 142 | O=C(O)CSc1nccn1-c1cccc(F)c1
93 | 139 to 141 | O=C(O)C1(C(=O)NC2CC2)CCC1

Row | melting point [°C] | Structure (SMILES)
94 | 85 to 87 | CC1CC1C(=O)NN (stereo not given)
95 | 158 to 160 | CS(=O)(=O)Nc1ccc(O)cc1
96 | 118 to 120 | CN1CCN(C(=O)CC#N)CC1
97 | 170 to 174 | O=C(O)c1cc(Cl)ccn1
98 | 159 to 161 | O=C1CC(C(F)(F)F)N(C(=O)CCl)c2ccccc2N1 (stereo not given)
99 | 87 to 91 | COCCn1c(C)cc(C(=O)CCl)c1C
100 | 119 to 121 | CCCCn1nc(C(=O)O)ccc1=O
101 | 104 to 106 | Cc1cc(N2CCCC2=O)ccc1S(=O)(=O)Cl
102 | 190 to 192 | CCc1nc2ccccc2c(C(=O)O)c1C
103 | 78 to 80 | Cc1ccccc1NCC(=O)N1CCCCC1
104 | 66 to 68 | Cc1cc(CC(=O)O)c(C)s1
105 | 259 to 261 | O=C(O)c1ccncc1N1CCCC1
106 | 41 to 43 | CC1CC(C)CN(S(=O)(=O)Cl)C1 (stereo not given)
107 | 161 to 163 | CC(C)(C)n1cnnc1SCC(=O)O
108 | 225 to 227 | O=C1CCC2(C(=O)O)Sc3ccccc3N12 (stereo not given)
109 | 171 to 173 | O=C(O)c1ccnc(OCc2ccccc2)c1
110 | 93 to 96 | NS(=O)(=O)c1cccc(NC(=O)c2ccc(Cl)cc2)c1
111 | 118 to 120 | O=C(c1ccc(Br)o1)N1CCNCC1
112 | 120 to 122 | Cc1ccc(C)c(S(=O)(=O)Oc2ccccc2C(=O)O)c1
113 | 288 to 290 | Cc1nc(NC(=O)NN)no1
114 | 95 to 97 | Cc1nnc(N2CCC(=O)CC2)s1
115 | 191 to 193 | NCCNC(=O)c1ccc(O)cc1
116 | 115 to 117 | COc1ccc(CN)cc1NC(C)=O
117 | 211 to 213 | Cc1c(C(=O)O)cccc1-c1ccccn1
118 | 110 to 112 | COC(=O)Cc1cc(=O)n(C(C)(C)C)[nH]1
119 | 130 to 134 | O=C(O)CCNc1ccc(C(F)(F)F)cc1[N+](=O)[O-]
120 | 249 to 251 | O=C(O)c1n[nH]c2c1CCCC2

Row | melting point [°C] | Structure (SMILES)
121 | 140 to 142 | CC(=O)c1sc(NCCCC(=O)O)nc1C
122 | 49 to 51 | CNC1CCN(c2ccc(Cl)cc2)CC1
123 | 168 to 170 | O=C(O)C(=O)c1cnn(-c2ccccc2)c1
124 | 249 to 251 | Cc1c(C(=O)O)oc2ccc(Br)cc12
125 | 165 to 167 | O=C(O)CCc1cncc(F)c1
126 | 128 to 130 | O=C(O)C1(c2ccccc2)CCOCC1
127 | 205 to 207 | CS(=O)(=O)Nc1cc(F)ccc1C(=O)O
128 | 102 to 104 | O=C(CCl)N(Cc1nnc(-c2ccc(Cl)cc2)o1)C1CC1
129 | 74 to 76 | Cc1ccc(NC(=O)CCl)cc1S(=O)(=O)N1CCCCCC1
130 | 139 to 141 | NC(=O)CNc1ccccc1
131 | 137 to 139 | NC(=O)NCCCc1ccccc1
132 | 84 to 86 | CC(C)c1cccc(-c2ccc(C(=O)O)o2)c1
133 | 43 to 45 | CC(C)(C)OC(=O)NCCCCC(=O)O
134 | 69 to 71 | CC(C)COC(=O)N1CCC(C(=O)O)CC1
135 | 63 to 65 | CCS(=O)(=O)NCCC(=O)O
136 | 87 to 89 | COc1cccc(NCCC(=O)O)c1
137 | 154 to 156 | CCc1n[nH]c(=O)c(C(=O)O)c1CC
138 | 147 to 160 | COC(=O)C(F)c1nc2ccccc2c(=O)[nH]1 (stereo not given)
139 | 255 to 257 | O=C(O)C1CCCN(C(=O)c2cccc3ccccc23)C1 (stereo not given)
140 | 222 to 224 | COC(=O)c1c(O)cc(=O)n2c1CCCCC2
141 | 145 to 147 | O=[N+]([O-])c1cc(NS(=O)(=O)c2ccc3c(c2)OCCCO3)ccc1F
142 | 143 to 147 | O=C(O)C1Cc2ccccc2CN1C(=O)c1ccco1 (stereo not given)
143 | 174 to 176 | O=C(O)CCOc1ccc(-c2ccccc2)cc1
144 | 195 to 197 | CCOC(=O)c1c[nH]n(CC(=O)O)c1=N
145 | 103 to 105 | CC(NC(=O)OC(C)(C)C)C1CCNCC1 (stereo not given)
